For assay [1], the system named is ApoE gene transcripts in Alzheimer disease (AD) fibroblasts. Nature of the assay: Effects of individual components on ApoE gene transcription in AD fibroblasts (young and old donors, not separated). The format is cell-based, human. Particulars: 1 ug/ml, overnight.
The test system of assay [2] is ApoE gene transcripts in NHDF. Nature of the assay: ApoE gene transcription (RT-PCR) in normal human dermal fibroblasts. It is filed as cell-based. As to conditions: overnight.
Assay [3] has as its system iNOS gene transcripts in lung cancer cell line A549. Nature of the assay: iNOS expression (RT-PCR) in lung cancer cells with IL-1β. It is filed as cell-based, human. The protocol:
(§1) ApoE and iNOS determination: Fibroblasts from Alzheimer disease (AD) […] (AG07887), and […] (AG08629) and/or Normal Human fibroblasts (NHDF) and/or lung cancer cell line A549 were grown on DMEM/F12 without phenol red (Gibco, USA). Media was supplemented with charcoal stripped, sterile-filtered 10% fetal bovine serum (Sigma-Millipore, USA Origen), and 1% penicillin-streptomycin.
(§2) Cells were separated and splatted in 2 cm cell culture dishes and subjected to none or treated with IL-1βat 15 pg/ml, in the presence of Basic Mix (1 μg/ml), Mix 1-1 (1 μg/ml), Mix 1-2 (2 μg/ml), genistein (1 μg/ml), and estrogen E2 (5 nM) as indicated in each experiment. Treated cells were incubated for two hours or overnight followed by RNA isolation and purification for RT-PCR analysis.
(§3) Total RNA was obtained by standard method RNeasy* Plus, (Qiagen, Germany) lysing cells with RLT Plus buffer according to the manufacturer's instructions. Equal amount of RNA extracted from each treated lysate was reverse transcribed in 20 microliters reactions with RT-QuantiTech kit (Qiagen, Germany). […] Amplification in 40 cycles and Ct quantification was carried out in CFX-Connect PCR-system from BioRad. Relative expression of the target gene data was analyzed using delta Ct method and compared to delta Ct of expression of a reference gene. […]

Assay [4] deals with ApoE gene transcripts in AD fibroblasts (AG07887). The assay is described as follows: ApoE gene transcription (RT-PCR) in fibroblasts from young Alzheimer's disease donor. It is filed as cell-based, human. As to conditions: with IL1b, Mix 1 at 1 mcg/ml, estradiol 5 nM. The protocol:
as §1, §2, §3

The test system of assay [5] is ApoE gene transcripts in AD fibroblasts (AG08629). Nature of the assay: ApoE gene transcription (RT-PCR) in fibroblasts from old Alzheimer's disease donor. It is filed as cell-based, human. As to conditions: with IL1b, Mix 1 at 1 mcg/ml, Basic Mix 1 ug/ml, estradiol 5 nM. As for the experimental part: as §1, §2, §3
The subject of assay [6] is ApoE gene transcripts in lung cancer cell line A549. Nature of the assay: ApoE gene transcription (RT-PCR) in lung cancer cells with IL-1β. The format is cell-based, human. As to conditions: A549, IL-1 15 pg/ml; Mix 1 4 μg/ml, estrogen 5 nM, genistein 1 μg/ml. The protocol: as §1, §2, §3
Assay [7] has as its system MCF7 estrogen-dependent breast cancer cells. The assay is described as follows: In vitro MCF7 cells proliferation (E-SCREEN) assay, MTT. It is filed as cell-based, human. As to conditions: β-17-estradiol 0.5 μg/ml, 6 days. The protocol:
In vitro MCF7 cells proliferation (E-SCREEN) assay: MCF-7 cells (1×10^3 cells/well of a 96-well plate) were cultured with different micronutrients and plant extracts (0.5-5 μg/ml) with added β-17-estradiol (0.5 μg/ml) for 6 days at 37° C. Thereafter, medium in each well, including control wells, was replaced with 150 μl of tetrazolium MTT (3-(4, 5-dimethylthiazolyl-2)-2,5-diphenyltetrazolium bromide) ([…]). Wells that received DMSO only were used as negative control whereas that cells that receive only β-17-estradiol were use as positive control. Next, cells were incubated for 3 h at 37° C., the supernatant with MTT was removed, and the adherent cells were rinsed with PBS. Next, 150 μl of isopropanol was added to each well and the absorbance was measured at 570 nm using the microplate reader. Percentage of MTT reduction by metabolically active cell to purple formazan (reflecting cell proliferation rate) was calculated as following equation: Proliferation rate=[(ODsample-ODcontrol)/ODcontrol].
We used MCF7 cancer cells which are epithelial cells isolated from the breast tissue of a patient with metastatic adenocarcinoma and depend on estrogen to proliferate. […]

[8] abbreviates: pro-inflammatory conditions (IL1b 15 pg/ml).
Where [9] appears, read: normal conditions (without IL1β).
Where [10] appears, read: pro-inflammatory condition (with IL1β).

For `O=c1c(O)c(-c2ccc(O)c(O)c2)oc2cc(O)cc(O)c12` [quercetin], the figures for the “effect of individual compounds on ApoE transcript” value (from here on “effect of individual compounds”) in assay [1] (normal conditions (without IL1b)) and in assay [1] (setting [8]) were “lowering effect” and “ApoE increasing effects”, respectively.

Regarding `Cc1c(C)c2c(c(C)c1O)CC[C@@](C)(CCC[C@H](C)CCC[C@H](C)CCCC(C)C)O2` [Vitamin E, D-alpha-tocopherol], the “effect on ApoE expression” value in assay [2] (setting [9]) is on record as “moderate lowering effect”.

As to phosphatidyl choline, the “effect on ApoE expression” value in assay [2] (setting [10]) was “comparable”.

Take `C[C@]12CC[C@@H]3c4ccc(O)cc4CC[C@H]3[C@@H]1CC[C@@H]2O` [estrogen, β-17-estradiol]: the “increase of iNOS expression over control” value in assay [3] (A549, IL-1 15 pg/ml, estrogen 5 nM) was “more than 20 times”. For the same molecule, the “decrease of ApoE transcription” value in assay [4] is reported as “equal to control”. Moreover, the “decrease of ApoE transcript compared to no treatment control” value in assay [5] is listed as “about 3 times”. In addition, the “effect on ApoE transcripts in human lung cancer cells” value in assay [6] is listed as “inhibitory effect”. Besides, the “MCF7 proliferation rate, higher compared to normal control” value in assay [7] is reported as “about 1.2 folds”.

For `CC(C)(CO)[C@@H](O)C(=O)NCCC(=O)O` [vitamin B5, Pantothenic acid], the “effect on ApoE expression” value in assay [2] (setting [9]) is listed as “moderate lowering effect”.

With `O=c1c(-c2ccc(O)cc2)coc2cc(O)ccc12` [Daidzein], the “effect of individual compounds” value in assay [1] (setting [8]) is “ApoE increasing effects”.

As to `O[C@H]1[C@H](O)[C@@H](O)[C@H](O)[C@@H](O)[C@H]1O` [inositol, Inositol], the “effect on ApoE expression” value in assay [2] (setting [10]) is given as “comparable”.

For `O=c1c(-c2ccc(O)cc2)coc2cc(O)cc(O)c12` [genistein], the “lowering of iNOS transcript” value in assay [3] (A549, pro-inflammatory conditions (IL1b), 1 mcg/ml) is given as “comparable”. The “effect of individual compounds” value in assay [1] (setting [8]) was “slight ApoE lowering effect”. The “effect on ApoE transcripts in human lung cancer cells” value in assay [6] is given as “inhibitory effect”.

Source of the values: patent US11679096B1, “Composition and method of treatment of elevated ApoE gene expression related health issues” (priority 2022, dated 2023).
